This note sets out measurements from patent US8703776B2 (Cymabay Therapeutics, Inc., priority 2011, dated 2014).

Each structure is given as a SMILES string.

The target in this assay is T1, human GPR131 (Homo sapiens, UniProt Q8TDU6).
T1 construct: expressed in transfected cells
T1 sequence (Q8TDU6 1-330): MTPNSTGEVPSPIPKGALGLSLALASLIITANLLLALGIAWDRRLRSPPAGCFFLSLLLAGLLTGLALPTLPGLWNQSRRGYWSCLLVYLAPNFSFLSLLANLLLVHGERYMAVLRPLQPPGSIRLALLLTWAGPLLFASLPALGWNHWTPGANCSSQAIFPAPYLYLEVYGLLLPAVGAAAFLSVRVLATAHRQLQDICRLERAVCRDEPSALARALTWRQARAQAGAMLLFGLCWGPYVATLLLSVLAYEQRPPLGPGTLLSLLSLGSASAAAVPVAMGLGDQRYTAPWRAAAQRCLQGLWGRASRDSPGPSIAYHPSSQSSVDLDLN
In words: Stimulation of cAMP in stable cell line expressing human GPR131 (FRET cAMP kit). As to conditions: 0.5 h; 1.1 μM compound, relative to maximal stimulatory activity of lithocholic acid at 3.3 μM; 30 minutes at 37° C.; read-out: Percent Activity @ 1.1 μM (of 3.3 uM LCA) (%). It counts as cell-based. The method in brief:
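Stable human GPR131 cells in DMEM/F12 with 1 mM IBMX treated with compound for 30 min at 37° C. Intracellular cAMP measured by competitive FRET immunoassay (665/620 nm ratio). Values given as % activity at 1.1 μM compound relative to maximal lithocholic acid stimulation at 3.3 μM.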

On to `Cc1nn(C)cc1CN(C)C(=O)c1cnc(SCc2nc3ccccc3o2)n1-c1ccc(F)cc1` [Compound 629, 2-((Benzo[d]oxazol-2-ylmethyl)thio)-N-((1,3-dimethyl-1H-pyrazol-4-yl)methyl)-1-(4-fluorophenyl)-N-methyl-1H-imidazole-5-carboxamide], for which the activation at 1.1 µM stood at 100%. Then `CCc1noc(CSc2ncc(C(=O)N(C)Cc3cn(C)nc3C)n2-c2ccc(F)cc2)n1` [Compound 630, N-((1,3-Dimethyl-1H-pyrazol-4-yl)methyl)-2-(((3-ethyl-1,2,4-oxadiazol-5-yl)methyl)thio)-1-(4-fluorophenyl)-N-methyl-1H-imidazole-5-carboxamide], with 98%; and `Cc1nn(C)cc1CN(C)C(=O)c1cnc(SCc2cc(C(C)C)no2)n1-c1ccc(F)cc1` [Compound 631, N-((1,3-Dimethyl-1H-pyrazol-4-yl)methyl)-1-(4-fluorophenyl)-2-(((3-isopropylisoxazol-5-yl)methyl)thio)-N-methyl-1H-imidazole-5-carboxamide], with 97%. The value for `Cc1nn(C)cc1CN(C)C(=O)c1cnc(SCc2cc3ccccn3n2)n1-c1ccc(F)cc1` [Compound 632, N-((1,3-Dimethyl-1H-pyrazol-4-yl)methyl)-1-(4-fluorophenyl)-N-methyl-2-((pyrazolo[1,5-a]pyridin-2-ylmethyl)thio)-1H-imidazole-5-carboxamide] was 100%. Then `Cc1nn(C)cc1CN(C)C(=O)c1cnc(SCc2ccn(C)n2)n1-c1ccc(F)cc1` [Compound 633, N-((1,3-Dimethyl-1H-pyrazol-4-yl)methyl)-1-(4-fluorophenyl)-N-methyl-2-(((1-methyl-1H-pyrazol-3-yl)methyl)thio)-1H-imidazole-5-carboxamide], with 93%. Regarding `Cc1nn(C)cc1CN(C)C(=O)c1cnc(SCc2ncn(C)n2)n1-c1ccc(F)cc1` [Compound 634, N-((1,3-Dimethyl-1H-pyrazol-4-yl)methyl)-1-(4-fluorophenyl)-N-methyl-2-(((1-methyl-1H-1,2,4-triazol-3-yl)methyl)thio)-1H-imidazole-5-carboxamide], the activation at 1.1 µM was found to be 91%. Turning to `Cc1nn(C)cc1CN(C)C(=O)c1cnc(SCc2ncccn2)n1-c1ccc(F)cc1` [Compound 635, N-((1,3-Dimethyl-1H-pyrazol-4-yl)methyl)-1-(4-fluorophenyl)-N-methyl-2-((pyrimidin-2-ylmethyl)thio)-1H-imidazole-5-carboxamide], the activation at 1.1 µM stood at 98%.

For `Cc1csc(CSc2ncc(C(=O)N(C)Cc3cn(C)nc3C)n2-c2ccc(F)cc2)n1` [Compound 636, N-((1,3-Dimethyl-1H-pyrazol-4-yl)methyl)-1-(4-fluorophenyl)-N-methyl-2-(((4-methylthiazol-2-yl)methyl)thio)-1H-imidazole-5-carboxamide], the activation at 1.1 µM was determined as 98%.

On to `CCOC(=O)CSc1ncc(C(=O)N(C)Cc2cn(C)nc2C)n1-c1ccc(F)cc1` [Compound 637, Ethyl 2-((5-(((1,3-dimethyl-1H-pyrazol-4-yl)methyl)(methyl)carbamoyl)-1-(4-fluorophenyl)-1H-imidazol-2-yl)thio)acetate], for which the activation at 1.1 µM amounted to 94%.
